Laboratory results reported in patent EP0456204A2, “Use of benzocycloheptathiophenecarboxylic acid derivatives in the treatment of eosinophile accumulation/activation and connected diseases” (SANDOZ LTD., priority 1990, dated 1991).

Key:
[1] = test system: eosinophil accumulation in the airway lumen; experiment: Suppression of eosinophil accumulation in allergen (ovalbumin) treated, sensitised animals; airway lavage cell counts; assay type: in vivo, Guinea-pigs (Dunkin-Hartley, male); conditions: for airway eosinophil accumulation compared with untreated controls: 10.0 - 100mg/kg/day as a solution orally for 6 consecutive days prior to challenge, 1 hour prior and seven hours after challenge, lavage 24 hours after challenge
[2] = test system: allergen induced eosinophilia; experiment: Influence on allergen induced eosinophilia following inhalation of test compound; bronchoalveolar lavage 24 hrs after challenge; assay type: in vivo, Male guinea-pigs (Dunkin-Hartley); conditions: inhalation immediately before challenge, 10.0 to 100mg/kg; lavage 24 hrs following challenge
Procedure: EXAMPLE B: INFLUENCE ON ALLERGEN INDUCED EOSINOPHILIA IN THE GUINEA-PIG FOLLOWING INHALATION
Male guinea-pigs (Dunkin-Hartley) of ca. 300-400g are sensitized employing 10µg amounts of ovalbumin (3x) and applying the technique described in Sanjar et al., Br. J. Pharmacol., 99, 679-686 (1990).
Immediately before challenge COMPOUND OF THE INVENTION, for example COMPOUND D2 or COMPOUND K1 each in substantially pure form, is administered to sensitized animals by inhalation. Administration is effected via a nose-cone either in dry powder with delivery from a brush feed micronising jet mill powder aerosol generator, as described in Bernstein et al. "Aerosols: Science, Technology and Industrial Application of Airborne Particles", Extended Abstract, eds. B.Y.H. Liu. et. al., Elsevier Science, New York, 1984 or in solution from a nebulizer. Antigen challenge or exposure is then carried out, again in accordance with the methods described by Sanjar et. al. loc cit. at p. 680 column 1, employing 10µg ovalbumin in 0.01% solution. Broncheolar lavage is performed 24 hrs following challenge, as follows: • 1. Airway lavage Guinea-pigs are killed by an intraperitoneal injection of pentobarbitone 100mg/kg). The trachea is exposed and cannulated. 10ml of Hank's balanced solution is introduced into the lungs and immediately aspirated by gentle compression of the lung tissue. This procedure is repeated five times. Aspiration fluid is pooled at room temperature in Falcon plastic tubes (60ml). Fluid recovered from the six washes normally exceeds 50ml (85%). The cell suspension is centrifuged (200g for 10 minutes); the supernatant is discarded and the cell pellet resuspended in 1ml of Hank's balanced solution. • 2. Total cell counts 10µl of the 1ml cell suspension is added to 190µl or 90µl (when cell count is low) of Turk's stain (Merck, Darmstadt, Germany) and total cell numbers are determined in a Neubauer (brightline) hemocytometer. The incidence of cells in the 1ml suspension is calculated by multiplying the total cells enumerated in a square of 1mm² by the original dilution viz.: No. of cells counted x dilution x […] = no. of cells/ml. • 3. Differential cell counts The cell suspension is diluted in Hank's balanced solution to obtain a cell concentration of 10⁶ cells per ml. 50µl of this cell suspension is placed in the cytospin (Cytospin 2, Shandon Co.) tube and overlaid by 200µl of buffer. The cytospin is used at 600rpm for 8 minutes. Results for groups of animals receiving COMPOUNDS OF THE INVENTION at varying doses are compared with results for control challenged animals receiving no test substance.

[3] = Tolerability in clinical trials; assay type: in vivo, human; conditions: oral dosage rates of 50, 200 and 400mg/day
[4] = test system: pneumoconiosis or severe bronchitis; experiment: Clinical trial 2: utility in pneumoconiosis/bronchitis; assay type: in vivo, subjects (human); conditions: daily oral dosage as under 1.2, in excess of 2 months; for need for concomitant medication: frequent alternative medication at trial entry
Procedure: (§1) Suitable individual oral dosages, e.g. for COMPOUNDS D2 and K1 in substantially pure form, in such clinical trials comprise, e.g. from ca. 10 to 800mg, e.g. from ca. 50 to 250mg/day, for example at dosages of ca. 25, 50, 200 or 400mg/day orally administered 1x or in divided doses 2 to 3x daily, for example in encapsulated form as hereinafter described in EXAMPLE F. Both acute (0 to 1 hour) and long-term (up to 12 hour) change in lung function is determined post-medication by measurement of lung function parameters, e.g. as follows: • a) FVC; FEV 0.5; FEV 1.0; FEV 3.0; • b) FEV 0.5/FVC; FEV 1/FVC; FEV 3/FVC; • c) PEF; FEF 25-75%; FEF 75-85%; FEF 25%; FEF 50%; FEF 75%; FEF 0.2-1.2 • d) Flow expiratory curve and flow inspiratory curve. Tolerance of medication and possible occurrence of side effects are also reported. In addition to monitoring of lung function, blood eosinophil levels are also monitored and the incidence of activated eosinophils and eosinophil secretory proteins determined. In individual studies, subjects are also subjected to lung lavage and the presence of eosinophils and platelets and their respective secretory products determined before and after exposure to allergen. […] Initial dosaging for e.g. COMPOUND D2 or COMPOUND K1 in substantially pure form is of the order of from 10 to 800mg, e.g. from ca. 50 to 250mg/day, for example at dosages of ca. 25, 50, 200 or 400mg/day administered, e.g. orally once or in divided dosages 2 to 3x daily with subsequent reduction in appropriate cases to a maintenance dosage of 10 to 400mg/day orally. (Suitable dosage forms are e.g. as hereinafter described in EXAMPLE F). During the course of the trial subjects are monitored continually and all relevant parameters recorded including lung function, alterations in the incidence of activated eosinophils or the release of eosinophil products into the blood or bronchial fluids and, in particular, frequency and severity of asthma exacerbation or attack. Additional bronchodilator therapy is provided on the occasion of any such attack. […] UTILITY IN PNEUMOCONIOSIS/BRONCHITIS The trial is performed analogously to 1.2 above but with groups of subjects having a history of pneumoconiosis or severe bronchitis, e.g. characterised by events of restricted lung function, for example including difficulty in breathing, wheezing, dyspnea or occasional bronchoconstrictor attack and a record of pneumoconiosis- or bronchitis-related work absenteeism. […] COMPOUND D2 or COMPOUND K1 each in substantially pure form is administered daily at oral dosage rates as set forth under 1.2 above, over periods in excess of 2, preferably in excess of 3, months. During the course of the trial, subjects are monitored continually and all relevant parameters are recorded, including basal lung function, frequency of attack with impairment of lung function, requirement for other medication and frequency of absenteeism attributable to disease status. […] In cases where frequent use of alternative medication is recorded at trial entry, reduced need for concomitant medication is also observed as the trial progresses. Similar results are obtainable employing other COMPOUNDS OF THE INVENTION at the same or equivalent dosage rates. • 3. […] COMPOUND D2 or COMPOUND K1 in substantially pure form is administered orally at a daily dosage rate of from 10 to 400mg, e.g. from cam. 50 to 250mg/day, for example at dosages of ca. 25, 50 or 200mg, e.g. in dosage form as hereinafter described in EXAMPLE F. The trial is continued for a period of up to 2 to 3 months. Blood samples are collected regularly during the course of the trial and assayed for blood-eosinophil count, incidence of activated eosinophils and levels of eosinophil secretory proteins. […] Recorded symptomatology attributable to condition is also found to undergo reversal during treatment. Similar results are obtainable employing other COMPOUNDS OF THE INVENTION at the same or equivalent dosage rates.

[5] = test system: asthma exacerbation or attack; experiment: Clinical trial 1.2: long-term prophylactic efficacy in asthmatic subjects; assay type: in vivo, asthmatic subjects (human); conditions: 10 to 800mg/day orally; for frequency of asthma exacerbation or attack: at least 2 up to 6 months and more, compared with alternative, non-prophylactic therapy; for need for concomitant (bronchodilator) therapy: at least 2 up to 6 months, subjects initially dependent on methyl-xanthine or β₂-agonist therapy
Procedure: (§2) Suitable individual oral dosages, e.g. for COMPOUNDS D2 and K1 in substantially pure form, in such clinical trials comprise, e.g. from ca. 10 to 800mg, e.g. from ca. 50 to 250mg/day, for example at dosages of ca. 25, 50, 200 or 400mg/day orally administered 1x or in divided doses 2 to 3x daily, for example in encapsulated form as hereinafter described in EXAMPLE F. Both acute (0 to 1 hour) and long-term (up to 12 hour) change in lung function is determined post-medication by measurement of lung function parameters, e.g. as follows: • a) FVC; FEV 0.5; FEV 1.0; FEV 3.0; • b) FEV 0.5/FVC; FEV 1/FVC; FEV 3/FVC; • c) PEF; FEF 25-75%; FEF 75-85%; FEF 25%; FEF 50%; FEF 75%; FEF 0.2-1.2 • d) Flow expiratory curve and flow inspiratory curve. Tolerance of medication and possible occurrence of side effects are also reported. In addition to monitoring of lung function, blood eosinophil levels are also monitored and the incidence of activated eosinophils and eosinophil secretory proteins determined. In individual studies, subjects are also subjected to lung lavage and the presence of eosinophils and platelets and their respective secretory products determined before and after exposure to allergen. […] Initial dosaging for e.g. COMPOUND D2 or COMPOUND K1 in substantially pure form is of the order of from 10 to 800mg, e.g. from ca. 50 to 250mg/day, for example at dosages of ca. 25, 50, 200 or 400mg/day administered, e.g. orally once or in divided dosages 2 to 3x daily with subsequent reduction in appropriate cases to a maintenance dosage of 10 to 400mg/day orally. (Suitable dosage forms are e.g. as hereinafter described in EXAMPLE F). During the course of the trial subjects are monitored continually and all relevant parameters recorded including lung function, alterations in the incidence of activated eosinophils or the release of eosinophil products into the blood or bronchial fluids and, in particular, frequency and severity of asthma exacerbation or attack. Additional bronchodilator therapy is provided on the occasion of any such attack. […] During the course of the trial, subjects are monitored continually and all relevant parameters are recorded, including basal lung function, frequency of attack with impairment of lung function, requirement for other medication and frequency of absenteeism attributable to disease status. […] In cases where frequent use of alternative medication is recorded at trial entry, reduced need for concomitant medication is also observed as the trial progresses. […] Recorded symptomatology attributable to condition is also found to undergo reversal during treatment. […]

[6] = Acute toxicity (LD50) in mice; conditions: mouse, in vivo, read-out: LD₅₀
Procedure: (§3) Thus established LD₅₀ values for the COMPOUND D2 in substantially pure form in mice and rats after 14 days p.o. and 7 days i.v. are: in mice, p.o […], i.v. 163 mg/kg; in rats, p.o. 1721 mg/kg, i.v. 50 mg/kg.

[7] = test system: elevated eosinophil presence in the blood; experiment: Clinical trial 3: utility in hypereosinophilia and eosinophil-related disorders; assay type: in vivo, subjects (human); conditions: orally 10 to 400mg daily, up to 2 to 3 months
Procedure: as §1

beagle dogs = experiment: 26-week oral tolerability in beagle dogs; assay type: in vivo; conditions: up to 200 mg/kg/day P.O for 26 weeks
[8] = test system: allergic, atopic bronchoconstrictor response; experiment: Clinical trial 1.1: prophylactic efficacy before allergen challenge in obstructive inflammatory airways disease, e.g. asthma; assay type: in vivo, subjects (human); conditions: oral ca. 10 to 800mg/day, 1 to 2 hours or 1 to 7 days prior to allergen challenge; compared with placebo
Procedure: as §2

[9] = Acute toxicity (LD50) in rats; conditions: rat, in vivo, read-out: LD₅₀
Procedure: as §3

beagle dog = experiment: Pilot toxicological studies in the beagle dog; assay type: in vivo; conditions: 150 and 200 mg/kg p.o. in gelatin capsules over 5 weeks and in olive oil from week 6 to week 8 on

## COC1=Cc2ccccc2C(=CC(=O)O)c2ccsc21 [COMPOUND D2, [10-Methoxy-4H-benzo[4,5]cyclohepta[1,2-b]thiophen-4-ylidene]-acetic acid]
[1]
  airway eosinophil accumulation compared with untreated controls: significant reduction
[1]; dosages of 10 and 50mg/kg/day s.c.
  activity in the subject test model (airway eosinophil accumulation): significant activity
[2]
  eosinophil counts as compared with control groups: clear reduction
  neutrophil counts as compared with control groups: clear reduction
  total cell counts as compared with control groups: clear reduction
[3]
  tolerability / side effects: well tolerated with no significant side effect occurrance
[4]
  basal lung function: overall improvement
  frequency of attack and absenteeism: reduced frequency
  need for concomitant medication: reduced need
[5]
  frequency of asthma exacerbation or attack: marked reduction
  need for concomitant (bronchodilator) therapy: increasingly reduced need
[6]; iv, after 7 days
  LD50 at 168 h: 163 mg/kg
[6]; po, after 14 days
  LD50 at 336 h: 1620 mg/kg
[7]
  blood-eosinophil count: decreased blood-eosinophil count
  incidence of activated eosinophils and eosinophil secretory protein levels: decreased incidence
  recorded symptomatology attributable to condition: reversal
Beagle dogs
  tolerability: generally well tolerated
[8]
  eosinophilic response: reduction of eosinophilic response
  lung function parameters: marked improvement
[9]; iv, after 7 days
  LD50 at 168 h: 50 mg/kg
[9]; po, after 14 days
  LD50 at 336 h: 1720 mg/kg

## COC1=Cc2ccccc2C(=CC(=O)O)c2cc(Cl)sc21 [COMPOUND K2, [2-Chloro-10-methoxy-4H-benzo[4,5]cyclohepta[1,2-b]thiophen-4-ylidene]-acetic acid]
[5]
  frequency of asthma exacerbation or attack: marked reduction
  need for concomitant (bronchodilator) therapy: increasingly reduced need
[8]
  eosinophilic response: reduction of eosinophilic response
  lung function parameters: marked improvement

## COC1=Cc2ccccc2C(=CC(=O)O)c2cc(Cl)sc21 [COMPOUND K1, [2-Chloro-10-methoxy-4H-benzo[4,5]cyclohepta[1,2-b]thiophen-4-ylidene]-acetic acid]
Beagle dog
  pathological effects: no pathological effects
[1]
  airway eosinophil accumulation compared with untreated controls: significant reduction
[2]
  eosinophil counts as compared with control groups: clear reduction
  neutrophil counts as compared with control groups: clear reduction
  total cell counts as compared with control groups: clear reduction
[4]
  basal lung function: overall improvement
  frequency of attack and absenteeism: reduced frequency
  need for concomitant medication: reduced need
[7]
  blood-eosinophil count: decreased blood-eosinophil count
  incidence of activated eosinophils and eosinophil secretory protein levels: decreased incidence
  recorded symptomatology attributable to condition: reversal
